Laboratory results from US8609694B2, “Use of pyridin-2-yl-methylamine derivatives for the production of a medicament for the treatment of chronic pain symptoms of neuropathological or psychogenic origin” (Pierre Fabre Medicament, priority 2003, dated 2013).

Legend:
[1] = test system: chronic hypersensitivity after spinal cord lesion (central neuropathy); assay: central neuropathy test in the rat (spinal cord lesion, vocalization threshold to von Frey hairs); assay type: in vivo; details: fumarate of (Ia) 0.63 mg/rat/day
Experimental: The central neuropathy test used is conducted in the rat according to a method analogous to that described by Hao and Xu in Pain 1996, 66, 279-286. The product to be tested is delivered at a constant rate by means of an osmotic pump (Alzet, model 2ML2) for 14 days. The pumps are implanted 28 days after spinal cord lesion and then explanted at the treatment's end. In this model, it was established that at 28 days post-lesion the animal is in a phase of chronic hypersensitivity which then lasts for several months. In this experiment, the hypersensitivity of the lesioned animals treated with compound (Ia) or with saline solution was measured. The pain threshold was objectified by the animal's persistent vocalization in response to a stimulation of increasing intensity in the sensitive region by means of von Frey hairs. […] The fumarate of compound (Ia) is administered at 0.63 mg/rat/day. The pumps implanted in the group of lesioned control animals release a 0.9% NaCl solution (saline)/rat/day.
The stimulation sensitivity tests by means of von Frey hairs are conducted 3 days after implantation of the osmotic pump and continue regularly for 28 days. The doses refer to the weight of non-salified compound.
The effects obtained with compound (Ia) in comparison with those of the lesioned control animals that received saline solution are represented in FIG. 3 in the appendix.

[2] = test system: hypersensitivity (allodynia) after unilateral ligature of the infraorbital nerve (peripheral neuropathy); assay: peripheral neuropathy test in the rat (unilateral ligature of the infraorbital nerve, von Frey hair response score 0-4); assay type: in vivo; details: for amplitude of decrease of perceived pain intensity compared with baclofen: after nerve lesion of peripheral origin; for analgesic effect six days after the treatment's end (day 21): day 21, 6 days after pump explantation, same doses; for amplitude of analgesia 6 days after the treatment's end compared with amplitude at the treatment's end (day 15): day 21 versus day 15; for reduction of hypersensitivity (allodynia) to stimulation during treatment, versus saline: osmotic pump 14 days implanted 24 hours before lesion, (Ia) 0.63, (Ib) 0.16, morphine 5, baclofen 1.06 mg/rat/day, days 4-15
Experimental: The peripheral neuropathy test used was conducted in the rat according to a method analogous to that described by Vos in J. Neurosci. 1994, 14, 2708-2723. The product to be tested is delivered at a constant rate (0.12 ml/day) by means of an osmotic pump (Alzet, model 2ML2) for 14 days. The pumps are implanted 24 hours before lesion (unilateral ligature of the infraorbital nerve) and then explanted at the treatment's end. The pumps are implanted subcutaneously via a transverse incision made in the dorsal skin of the rat. Evaluation of the intensity of perceived pain is objectified from a series of behavioral signs observed in response to mechanical stimulation of the region lesioned by means of von Frey hairs. Stimulations are applied in order of increasing intensity. Intensity of perceived pain is evaluated from the following criteria: 0, no response by the animal; 1, detection (i.e., the rat turns its head towards the object used for stimulation); 2, withdrawal (i.e., the rat turns away or makes a withdrawal movement with its head to avoid the object used for stimulation); 3, flight or attack (i.e., the rat avoids the object by moving its body or deliberately attacks the object used for stimulation); 4, face rubbing (i.e., the rat rubs the area of stimulation three times in succession). The response level by the non-lesioned animals was 0 or 1.
The fumarate of compound (Ia) is administered at 0.63 mg/rat/day; the glycolate of compound (Ib) at 0.16 mg/rat/day; morphine hydrochloride at 5 mg/rat/day, and baclofen at 1.06 mg/rat/day. All the compounds are administered in solution in distilled water. The pumps implanted in the control animals release a 0.9% NaCl solution (saline)/rat/day; the doses refer to the weight of non-salified compound.
The effects obtained with compounds (Ia), (Ib), and the products chosen as references are represented in FIGS. 4 to 8 in the appendix. FIGS. 4 to 7 represent the analgesic effects of the various products evaluated at days 4, 6, 8, 11, and 13 of treatment and 1 day following explantation of the pump (day 15). FIG. 8 represents the analgesic effects of the various products measured at day 21, which is 6 days following the treatment's end.
The individual scores of each animal represent the average (±standard error) obtained after application of the von Frey hairs. The comparison of the results between the various groups as well as the progress of the values obtained over time are performed using an analysis of variance test (ANOVA), followed by a Dunnett's multiple comparison test.

[3] = test system: hypersensitivity (allodynia) after unilateral ligature of the infraorbital nerve (peripheral neuropathy); details: rat infraorbital nerve ligature model; cited from earlier work

For `Cc1ccc(CNCC2(F)CCN(C(=O)c3ccc(F)c(Cl)c3)CC2)nc1` [Compound (Ia)], the “analgesia after treatment is interrupted (curative phase)” value ([1]; after day 15, 14 days following pump explantation) was “analgesia persists and is maintained at the same level as that attained at the treatment's end”, the “symptomatic analgesia (vocalization threshold to von Frey stimulation) during treatment, versus saline” value ([1]; osmotic pump 14 days implanted 28 days after spinal cord lesion) was “statistically significant as of the tenth day of treatment” and the “amplitude of decrease of perceived pain intensity compared with baclofen” value [2] was “at least equivalent”. For the same compound, the “analgesic effect six days after the treatment's end (day 21)” value (from here on “analgesic effect six days”) [2] was “continued to show a significant analgesic effect”, the “amplitude of analgesia 6 days after the treatment's end compared with amplitude at the treatment's end (day 15)” value [2] was “not statistically different” and the “reduction of hypersensitivity (allodynia) to stimulation during treatment, versus saline” value (“reduction of hypersensitivity” below) [2] was “significantly after day 11”.
For `CNc1nc(CNCC2(F)CCN(C(=O)c3ccc(F)c(Cl)c3)CC2)ccc1C` [Compound (Ib)], the “amplitude of decrease of perceived pain intensity compared with baclofen” value [2] was “at least equivalent”, the “analgesic effect six days” value [2] was “continued to show a significant analgesic effect” and the “amplitude of analgesia 6 days after the treatment's end compared with amplitude at the treatment's end (day 15)” value [2] was “not statistically different”. The “reduction of hypersensitivity” value [2] was “significantly only after day 13”.
For `NCC(CC(=O)O)c1ccc(Cl)cc1` (stereo not drawn) [baclofen, reference compound], the “analgesic effect six days” value [2] is listed as “disappeared completely”, the “reduction of hypersensitivity” value [2] is listed as “significant analgesic effect after day 11” and the “activity in the peripheral neuropathy model as established previously” value [3] is listed as “agent with the highest activity”.
In the case of `CN1CC[C@]23c4c5ccc(O)c4O[C@H]2[C@@H](O)C=C[C@H]3[C@H]1C5` [morphine, reference compound], the “analgesic effect six days” value [2] was “disappeared completely” and the “reduction of hypersensitivity” value [2] was “inactive”.
